One data set has as its system A498 (renal cancer). Briefly: NCI 60-cell line protocol, Renal Cancer A498. The class given is cell-based, human. As to conditions: SRB endpoint; for GI50: Homo sapiens, A498, 48 h, five 10-fold dilutions, two days exposure; for A498 one dose (%): one-dose protocol, single final concentration of 10 micromolar, two days.
For a further data set, the system named is HS 578T (breast cancer). Briefly: NCI 60-cell line protocol, Breast Cancer HS 578T. Particulars: SRB endpoint; for GI50: Homo sapiens, Hs-578T, 48 h, five 10-fold dilutions, two days exposure; for HS 578T one dose (%): one-dose protocol, single final concentration of 10 micromolar, two days. The class given is cell-based, human.
Data set [1] in a line: Plasma concentration in mice 30 minutes after oral gavage, by dose (LC-MS). The class given is in vivo. The method, then: Mice were dosed at 5 mg/kg, 10 mg/kg, 50 mg/kg, and 100 mg/kg compound 9 in Labrasol vehicle via oral gavage. 30 minutes after dosing, plasma was assayed for the concentration of compound 9 using LC-MS. The results are depicted graphically in FIG. 5.

Data set [2] is described as follows: Plasma concentration in mice over time after oral gavage (LC-MS/MS). The class given is in vivo. On the procedure:
Ten mice were administered 50 mg/kg of compound 9 in Labrasol vehicle via oral gavage. Two mice at a time were sacrificed at the following time points: 5 min, 15 min, 1 h, 4 h, and 8 h. Plasma concentrations of compound 9 were measured by LC-MS/MS, and the results set forth in Table 4 and depicted graphically in FIG. 7.
It was subsequently discovered that an error was made in weighing out compound 9 for formulation of a 5 mg/mL solution in Labrasol. The underweight formulation was confirmed to be about 40% of the expected concentration.

A further data set relates to ACHN (renal cancer). Briefly: NCI 60-cell line protocol, Renal Cancer ACHN. Particulars: SRB endpoint; for GI50: Homo sapiens, ACHN, 48 h, five 10-fold dilutions, two days exposure; for ACHN one dose (%): one-dose protocol, single final concentration of 10 micromolar, two days. The class given is cell-based, human.
The test system of the next data set is UACC-62. Briefly: NCI 60-cell line protocol, Melanoma UACC-62. Particulars: UACC-62 (Melanoma); single dose 10 μM; two days exposure; SRB endpoint.
The next data set concerns K-562. Briefly: NCI 60-cell line protocol, Leukemia K-562. As to conditions: K-562 (Leukemia); single dose 10 μM; two days exposure; SRB endpoint.
The next data set has as its system LOX IMVI. Briefly: NCI 60-cell line protocol, Melanoma LOX IMVI. Particulars: single dose 10 μM, two days exposure, SRB endpoint.
The test system of the next data set is RPMI-8226. The data set is described as follows: NCI 60-cell line protocol, Leukemia RPMI-8226. As to conditions: RPMI-8226 (Leukemia); single dose 10 μM; two days exposure; SRB endpoint.
In a further data set the test system is MDA-MB-435. The data set is described as follows: NCI 60-cell line protocol, Melanoma MDA-MB-435. Particulars: MDA-MB-435 (Melanoma); single dose 10 μM; two days exposure; SRB endpoint.
The next data set concerns M14. The data set is described as follows: NCI 60-cell line protocol, Melanoma M14. As to conditions: single dose 10 μM, two days exposure, SRB endpoint.
The test system of the next data set is SK-MEL-2. The data set is described as follows: NCI 60-cell line protocol, Melanoma SK-MEL-2. Particulars: SK-MEL-2 (Melanoma); single dose 10 μM; two days exposure; SRB endpoint.
The next data set relates to UACC-257. Briefly: NCI 60-cell line protocol, Melanoma UACC-257. Particulars: UACC-257 (Melanoma); single dose 10 μM; two days exposure; SRB endpoint.
For a further data set, the system named is SA. Briefly: NCI 60-cell line protocol, Leukemia SA. The class given is cell-based, human. Particulars: single dose 10 μM, two days exposure, SRB endpoint.
A further data set deals with MALME-3M. The data set is described as follows: NCI 60-cell line protocol, Melanoma MALME-3M. As to conditions: MALME-3M (Melanoma); single dose 10 μM; two days exposure; SRB endpoint.
A further data set deals with CCRF-CEM. The data set is described as follows: NCI 60-cell line protocol, Leukemia CCRF-CEM. As to conditions: single dose 10 μM, two days exposure, SRB endpoint.
The test system of another data set is SK-MEL-28. Briefly: NCI 60-cell line protocol, Melanoma SK-MEL-28. Particulars: SK-MEL-28 (Melanoma); single dose 10 μM; two days exposure; SRB endpoint.
The test system of another data set is SK-MEL-5. Briefly: NCI 60-cell line protocol, Melanoma SK-MEL-5. Particulars: SK-MEL-5 (Melanoma); single dose 10 μM; two days exposure; SRB endpoint.
In a further data set the test system is MOLT-4. The data set is described as follows: NCI 60-cell line protocol, Leukemia MOLT-4. As to conditions: MOLT-4 (Leukemia); single dose 10 μM; two days exposure; SRB endpoint. The class given is cell-based, human.
Another data set deals with HL-60(fB). The data set is described as follows: NCI 60-cell line protocol, Leukemia HL-60(fB). As to conditions: HL-60(fB) (Leukemia); single dose 10 μM; two days exposure; SRB endpoint. The class given is cell-based, human.

Each structure is given as a SMILES string. Values joined by “and” are separate entries in the source; they are usually repeats but may differ in a detail not shown here. Equal values may be shown once. Read-outs that look alike come from different tables or passages of the source.

Method for CCRF-CEM: (§1) Samples were tested in the standard National Cancer Institute 60-cell line protocol. First, they were tested against all 60 cell lines in a single final concentration of 10 micromolar. Then, they were separately tested in five 10-fold dilutions. The drug exposure was for two days, with an SRB endpoint.
(§2) Samples were tested in the standard National Cancer Institute 60-cell line protocol. The dosing protocol was a single dose of the compound at 10 μM concentration.
Method for K-562: as §1, §2
Method for LOX IMVI: as §1, §2
Method for M14: as §1, §2
Method for MALME-3M: as §1, §2
Method for MDA-MB-435: as §1, §2
Method for RPMI-8226: as §1, §2
Method for SK-MEL-28: as §1, §2
Method for SK-MEL-5: as §1, §2
Method for UACC-257: as §1, §2
Method for UACC-62: as §1, §2

Consider `CC1CCC2C1C(OC(=O)/C=C/c1ccccc1)C1(C(C)C)CC(NC(=O)CO)C2(C)O1` (centres unmarked) [Compound 9], for which the GI50 (commonly the concentration that inhibits growth by half) with A498 (renal cancer) turned out to be 0.16 µM; with HS 578T (breast cancer), 0.83 µM; with ACHN (renal cancer) it was 4 µM. Also, the “A498 one dose (%)” value in the data set with A498 (renal cancer) is −15.20%. Moreover, the “HS 578T one dose (%)” value in the data set on HS 578T (breast cancer) is given as 9.45%. In [1] (mouse, plasma, 100 mg/kg oral gavage in Labrasol, 30 minutes after dosing), the concentration at 30 min was around 700 ng/mL. The oral bioavailability result in data set [1] (oral gavage 5-100 mg/kg in Labrasol) was “orally bioavailable”; in data set [2] (mice, oral gavage 50 mg/kg in Labrasol) it was “orally bioavailable”. Also, the “[Aza-Englerin] (ng/mL), single animal” value in data set [2] (mice plasma, 50 mg/kg oral gavage in Labrasol, time 0.0833 hr, 50 mg/kg) was 13.20 ng/mL; in data set [2] (mice plasma, 50 mg/kg oral gavage in Labrasol, time 0.2500 hr, 50 mg/kg) it was 22.76 ng/mL and 58.70 ng/mL; in [2] (mice plasma, 50 mg/kg oral gavage in Labrasol, time 1.0000 hr, 50 mg/kg), 59.24 ng/mL; in data set [2] (mice plasma, 50 mg/kg oral gavage in Labrasol, time 4.0000 hr, 50 mg/kg), 31.12 ng/mL and 86.81 ng/mL; in data set [2] (mice plasma, 50 mg/kg oral gavage in Labrasol, time 8.0000 hr, 50 mg/kg), 48.21 ng/mL. Further, in [2] (mice, oral gavage in Labrasol), the absorption entry is “rapidly absorbed”. The “time for which plasma concentrations are sustained” value in data set [2] (mice, oral gavage in Labrasol) is given as “greater than 8 h”. The concentration at 5 min in data set [2] (mouse, plasma, po, 50 mg/kg, mice plasma, 50 mg/kg oral gavage in Labrasol, time 0.0833 hr, mean of two mice, read-out: [Aza-Englerin] Mean) came out at 10 ng/mL; in [2] (mouse, plasma, po, 50 mg/kg, mice plasma, 50 mg/kg oral gavage in Labrasol, time 0.0833 hr, read-out: [Aza-Englerin] (ng/mL), single animal) it was 6.87 ng/mL. Moreover, the concentration at 0.25 h in [2] (mouse, plasma, po, 50 mg/kg, mice plasma, 50 mg/kg oral gavage in Labrasol, time 0.2500 hr, mean of two mice, read-out: [Aza-Englerin] Mean) was found to be 40.7 ng/mL. The concentration at 1 h stood at 73.2 ng/mL in data set [2] (mouse, plasma, po, 50 mg/kg, mice plasma, 50 mg/kg oral gavage in Labrasol, time 1.0000 hr, mean of two mice, read-out: [Aza-Englerin] Mean) and 87.2 ng/mL in [2] (mouse, plasma, po, 50 mg/kg, mice plasma, 50 mg/kg oral gavage in Labrasol, time 1.0000 hr, read-out: [Aza-Englerin] (ng/mL), single animal). Also, in data set [2] (mouse, plasma, po, 50 mg/kg, mice plasma, 50 mg/kg oral gavage in Labrasol, time 4.0000 hr, mean of two mice, read-out: [Aza-Englerin] Mean), the concentration at 4 h worked out at 59 ng/mL. The concentration at 8 h in data set [2] (mouse, plasma, po, 50 mg/kg, mice plasma, 50 mg/kg oral gavage in Labrasol, time 8.0000 hr, mean of two mice, read-out: [Aza-Englerin] Mean) turned out to be 67.8 ng/mL; in data set [2] (mouse, plasma, po, 50 mg/kg, mice plasma, 50 mg/kg oral gavage in Labrasol, time 8.0000 hr, read-out: [Aza-Englerin] (ng/mL), single animal) it was 87.3 ng/mL. In [2] (mouse, mice plasma, 50 mg/kg oral gavage in Labrasol, SE=97.3 hr*ng/mL), the AUC(0-t) (usually exposure summed from dosing to a finite time, without extrapolation to infinity) was 524 ng·h/mL. In addition, the “ACHN one dose (%)” value with ACHN (renal cancer) was found to be 8.01%.

Regarding `C/C(=C\C(=O)OC1C2C(C)CCC2C2(C)OC1(C(C)C)CC2NC(=O)CO)c1ccccc1` (centres unmarked) [Compound 10], the GI50 in the data set on A498 (renal cancer) amounted to 1.1 µM; in the data set with HS 578T (breast cancer) it was 2.2 µM; with ACHN (renal cancer), 3.3 µM. Also, in the data set on A498 (renal cancer), the “A498 one dose (%)” value is listed as −24.59%. Moreover, the “Growth Percent” value with UACC-62 came out at 101.83%; with K-562 it was 92.32%; in the data set on LOX IMVI it was 100.2%; with RPMI-8226, 125.43%; with MDA-MB-435, 105.86%; in the data set on M14, 100.16%. For the same compound, the “Growth Percent” value with SK-MEL-2 is reported as 104.13%; in the data set with UACC-257, 92.39%; with SA, 117.13%; in the data set on MALME-3M, 95.9%; in the data set on CCRF-CEM it was 94.07%; in the data set on SK-MEL-28, 117.95%. In addition, the “Growth Percent” value with SK-MEL-5 is 101.11%. In addition, in the data set with HS 578T (breast cancer), the “HS 578T one dose (%)” value was −8.92%. The “ACHN one dose (%)” value in the data set with ACHN (renal cancer) stood at 27.88%.

For the compound `CC(C)[C@@]12C[C@@H](NC(=O)CO)[C@@](C)(O1)[C@@H]1CC[C@@H](C)[C@H]1[C@@H]2OC(=O)/C=C/C1CCCCC1` [Compound 11], in the data set on A498 (renal cancer), the GI50 amounted to 5.6 µM and the “A498 one dose (%)” value is on record as 41.34%. Also, in the data set on HS 578T (breast cancer), it took 6.2 µM to inhibit growth by half (GI50) and the “HS 578T one dose (%)” value is reported as 73.09%. Besides, in the data set with ACHN (renal cancer), the GI50 was found to be 17 µM and the “ACHN one dose (%)” value was 99.90%.

On to `CC(C)[C@@]12C[C@@H](NC(=O)CO)[C@@](C)(O1)[C@@H]1CC[C@@H](C)[C@H]1[C@@H]2OC(=O)c1ccc2ccccc2c1` [Compound 12], for which, in the data set on A498 (renal cancer), it took 1.6 µM to inhibit growth by half (GI50) and the “A498 one dose (%)” value is −15.23%. Also, in the data set with HS 578T (breast cancer), the GI50 came out at 2.2 µM and the “HS 578T one dose (%)” value is on record as −18.26%. In addition, in the data set on ACHN (renal cancer), halving of growth (GI50) required 5.4 µM and the “ACHN one dose (%)” value is 8.40%.

Consider `CC1CCC2C1C(OC(=O)/C=C/c1ccccc1)C1(C(C)C)CC(NC(=O)CF)C2(C)O1` (centres unmarked) [Compound 31], for which, in the data set with A498 (renal cancer), the “A498 one dose (%)” value worked out at 83.31%. Also, the “Growth Percent” value is 99.56% with UACC-62; 106.42% with K-562; 96.46% in the data set with MOLT-4; 102.48% in the data set with LOX IMVI; 94.34% in the data set on RPMI-8226; 106.48% in the data set on MDA-MB-435. Also, the “Growth Percent” value with HL-60(fB) amounted to 104.52%; in the data set with M14 it was 96.67%; in the data set with SK-MEL-2, 116.95%; in the data set with UACC-257, 104.8%; in the data set on SA, 85.46%; with MALME-3M, 106.46%. Moreover, the “Growth Percent” value in the data set with CCRF-CEM turned out to be 88.63%; with SK-MEL-28, 109.79%; in the data set with SK-MEL-5, 110.24%. Besides, in the data set with HS 578T (breast cancer), the “HS 578T one dose (%)” value was 92.63%. Also, in the data set on ACHN (renal cancer), the “ACHN one dose (%)” value is reported as 104.52%.

Source of the values: patent US9676788B2, “Aza-epoxy-guaiane derivatives and treatment of cancer” (The United States of America, as represented by the …, priority 2014, dated 2017).
